Data as given in the supplement of paper PMC10307832.

How the values were obtained:
Experiment in all cases: relative viability (nuclei count vs DMSO), 5 days (fraction); higher = more cells survive
[1] = compound: C1CC1C(=O)NC2=NNC3=C2C=CC(=C3)C4=CC(=CC=C4)C(=O)NC5CC5 [XMD13-2] + Nc1ncn([C@H]2C[C@H](O)[C@@H](CO)O2)c(=O)n1 [Decitabine] (partner 2 µM)
Method in brief: (§1)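 Lung cancer cell lines were pin-tool dosed in 1536-well plates on the day after seeding, with either a lone drug or a fixed anchor-drug dose plus five library-drug doses (not always all listed) in √10 steps. Nuclei were counted on 4× images after 5 days. Relative viability is the ratio of treated-well to vehicle-well nuclei counts, with each value a median of duplicate plates.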

[2] = compound: Cc1ccc(C(=O)Nc2cccc(C(F)(F)F)c2)cc1Nc1cncc(C(N)=O)c1 [ALW-II-49-7] + Cc1cc(Nc2cc(N3CCN(C)CC3)nc(Sc3ccc(NC(=O)C4CC4)cc3)n2)n[nH]1 [Tozasertib] (partner 0.1 µM)
Method in brief: as §1

[3] = compound: C1CC1C(=O)NC2=NNC3=C2C=CC(=C3)C4=CC(=CC=C4)C(=O)NC5CC5 [XMD13-2] + Nc1nc2[nH]cc(CCc3ccc(C(=O)N[C@@H](CCC(=O)O)C(=O)O)cc3)c2c(=O)[nH]1 [Pemetrexed] (partner 0.2 µM)
Method in brief: as §1

[4] = compound: Cc1nc(Nc2ncc(C(=O)Nc3c(C)cccc3Cl)s2)cc(N2CCN(CCO)CC2)n1 [Dasatinib] + CC(=O)c1c(C)c2cnc(Nc3ccc(N4CCNCC4)cn3)nc2n(C2CCCC2)c1=O [Palbociclib] (partner 0.5 µM)
Method in brief: as §1

Cell Line | relative viability ([1]; first compound 0.05 µM) | relative viability ([1]; first compound 0.1581 µM) | relative viability ([1]; first compound 0.5 µM) | relative viability ([1]; first compound 1.581 µM) | relative viability ([1]; first compound 5 µM) | relative viability ([2]; first compound 0.08 µM) | relative viability ([2]; first compound 0.253 µM) | relative viability ([2]; first compound 0.8 µM) | relative viability ([2]; first compound 2.53 µM) | relative viability ([2]; first compound 8 µM) | relative viability ([3]; first compound 0.05 µM) | relative viability ([3]; first compound 0.1581 µM) | relative viability ([3]; first compound 0.5 µM) | relative viability ([3]; first compound 1.581 µM) | relative viability ([3]; first compound 5 µM) | relative viability ([4]; first compound 0.005 µM) | relative viability ([4]; first compound 0.01581 µM) | relative viability ([4]; first compound 0.05 µM) | relative viability ([4]; first compound 0.1581 µM) | relative viability ([4]; first compound 0.5 µM)
NCI-H1734 | 0.529 | 0.484 | 0.561 | 0.487 | 0.528 | 0.263 | 0.278 | 0.255 | 0.24 | 0.232 | 0.41 | 0.422 | 0.398 | 0.412 | 0.386 | 0.328 | 0.285 | 0.295 | 0.208 | 0.2
NCI-H1755 | 0.703 | 0.719 | 0.665 | 0.736 | 0.667 | 0.654 | 0.558 | 0.463 | 0.483 | 0.466 | 0.418 | 0.455 | 0.473 | 0.456 | 0.396 | 0.438 | 0.435 | 0.401 | 0.322 | 0.235
NCI-H1793 | 0.517 | 0.481 | 0.581 | 0.431 | 0.507 | 0.366 | 0.301 | 0.338 | 0.296 | 0.321 | 1.26 | 0.83 | 0.94 | 0.859 | 0.97 | 0.217 | 0.279 | 0.236 | 0.247 | 0.231
NCI-H1915 | 0.261 | 0.268 | 0.251 | 0.256 | 0.268 | 0.398 | 0.457 | 0.42 | 0.341 | 0.277 | 0.504 | 0.509 | 0.544 | 0.504 | 0.513 | 0.482 | 0.438 | 0.403 | 0.195 | 0.163
NCI-H1944 | 0.438 | 0.436 | 0.493 | 0.474 | 0.482 | 0.234 | 0.249 | 0.251 | 0.246 | 0.254 | 0.74 | 0.573 | 0.622 | 0.875 | 0.642 | 0.315 | 0.242 | 0.249 | 0.119 | 0.111
NCI-H1975 | 0.373 | 0.381 | 0.412 | 0.414 | 0.333 | 0.743 | 1.05 | 0.667 | 0.508 | 0.243 | 0.295 | 0.286 | 0.295 | 0.316 | 0.305 | 0.519 | 0.527 | 0.482 | 0.341 | 0.134
NCI-H1993 | 0.625 | 0.552 | 0.663 | 0.632 | 0.669 | 0.524 | 0.605 | 0.567 | 0.629 | 0.632 | 0.62 | 0.619 | 0.613 | 0.643 | 0.555 | 0.65 | 0.623 | 0.622 | 0.662 | 0.373
NCI-H2009 | 0.372 | 0.394 | 0.427 | 0.449 | 0.387 | 0.771 | 0.804 | 0.707 | 0.653 | 0.562 | 1.01 | 1.1 | 1.01 | 1.01 | 1.07 | 0.186 | 0.137 | 0.138 | 0.103 | 0.101
NCI-H2023 | 0.255 | 0.214 | 0.215 | 0.22 | 0.195 | 0.257 | 0.464 | 0.276 | 0.259 | 0.189 | 0.261 | 0.206 | 0.195 | 0.242 | 0.246 | 0.319 | 0.304 | 0.303 | 0.326 | 0.204
NCI-H2085 | 0.622 | 0.525 | 0.593 | 0.51 | 0.563 | 0.753 | 0.895 | 0.787 | 0.743 | 0.568 | 0.959 | 0.838 | 0.977 | 0.789 | 1.03 | 0.495 | 0.485 | 0.395 | 0.191 | 0.206
NCI-H2087 | 0.322 | 0.291 | 0.344 | 0.26 | 0.279 | 0.222 | 0.266 | 0.271 | 0.162 | 0.16 | 0.635 | 0.661 | 0.624 | 0.67 | 0.583 | 0.223 | 0.206 | 0.238 | 0.184 | 0.142
NCI-H2126 | 0.598 | 0.56 | 0.545 | 0.539 | 0.619 | 0.856 | 0.885 | 0.826 | 0.197 | 0.786 | 0.748 | 0.656 | 0.634 | 0.704 | 0.647 | 0.362 | 0.347 | 0.309 | 0.298 | 0.285
NCI-H2170 | 0.507 | 0.466 | 0.506 | 0.459 | 0.43 | 0.724 | 0.817 | 0.73 | 0.618 | 0.767 | 0.284 | 0.294 | 0.323 | 0.267 | 0.285 | 0.377 | 0.394 | 0.397 | 0.288 | 0.204
NCI-H2342 | 0.724 | 0.841 | 0.778 | 0.716 | 0.807 | 0.437 | 0.409 | 0.478 | 0.496 | 0.436 | 0.806 | 0.711 | 0.772 | 0.72 | 0.775 | 0.483 | 0.646 | 0.464 | 0.393 | 0.267
NCI-H2347 | 0.599 | 0.565 | 0.652 | 0.566 | 0.65 | 0.422 | 0.543 | 0.463 | 0.563 | 0.57 | 0.458 | 0.443 | 0.446 | 0.453 | 0.45 | 0.393 | 0.438 | 0.415 | 0.329 | 0.224
NCI-H2405 | 0.796 | 0.731 | 0.73 | – | 0.673 | 0.73 | 0.692 | 0.687 | 0.642 | 0.547 | 1.18 | 1.02 | 1.11 | – | 1.07 | 0.498 | 0.374 | 0.3 | 0.219 | 0.186
NCI-H3122 | 0.403 | 0.439 | 0.414 | 0.372 | 0.395 | 0.437 | 0.202 | 0.371 | – | 0.373 | 0.193 | 0.195 | 0.199 | 0.199 | 0.195 | 0.201 | 0.214 | 0.207 | 0.239 | 0.131
PC-3 [JPC-3] | 0.794 | 0.892 | 0.851 | – | 0.842 | 0.653 | 0.946 | 0.867 | 0.776 | 0.843 | 1.23 | 1.04 | 1.14 | – | 1.12 | 0.593 | 0.534 | 0.607 | 0.568 | 0.465
PC-14 | 0.239 | 0.229 | 0.188 | 0.193 | 0.254 | 0.584 | 0.657 | 0.503 | 0.288 | 0.492 | 0.14 | 0.131 | 0.118 | 0.148 | 0.13 | 0.561 | 0.502 | 0.427 | 0.221 | 0.0393
RERF-LC-KJ | 0.813 | 0.747 | 0.711 | 0.702 | 0.713 | 0.442 | 0.524 | 0.461 | 0.506 | 0.321 | 0.478 | 0.425 | 0.476 | 0.385 | 0.463 | 1.08 | 0.994 | 1.11 | 0.782 | 0.81
SK-LU-1 | 0.569 | 0.601 | 0.746 | 0.616 | 0.628 | 0.323 | 0.391 | 0.295 | 0.289 | 0.242 | 0.997 | 0.964 | 1.01 | 0.977 | 0.948 | 0.34 | 0.228 | 0.241 | 0.207 | 0.189
SK-MES-1 | 0.429 | 0.409 | 0.373 | 0.339 | 0.455 | 0.878 | 0.986 | 0.843 | 0.844 | 0.568 | 1.01 | 0.894 | 0.911 | 0.909 | 0.864 | 0.353 | 0.358 | 0.269 | 0.187 | 0.154
SW 900 | 0.51 | 0.454 | 0.447 | 0.439 | 0.447 | 0.573 | 0.568 | 0.479 | 0.279 | 0.377 | 0.485 | 0.502 | 0.508 | 0.493 | 0.529 | 0.454 | 0.273 | 0.276 | 0.222 | 0.183
SW 1573 | 0.775 | 0.464 | 0.608 | 0.498 | 0.431 | 0.187 | 0.248 | 0.186 | 0.196 | 0.151 | 0.831 | 0.847 | 0.788 | 0.79 | 0.814 | 0.36 | – | 0.295 | 0.182 | 0.208
